Experimental data from PubChem BioAssay AID1259407 (Chemical Carcinogenesis Research Information System (CCRIS), 2018).
The source made the active and inactive calls. The rule behind the calls is not given here.

Tested on: CCRIS mutagenicity, Ames/micronucleus/aberration tests
Experiment: CCRIS mutagenicity studies
[1] = Test System: AMES SALMONELLA TYPHIMURIUM, Strain/Indicator: TA100, Metabolic Activation: NONE, Method: STANDARD PLATE

Nc1ccc(S(=O)(=O)c2ccc(N)cc2)cc1
mutagenic call (Test System: AMES SALMONELLA TYPHIMURIUM, Strain/Indicator: TA98, Metabolic Activation: NONE, Method: PREINCUBATION): inactive; negative
mutagenic call (Test System: AMES SALMONELLA TYPHIMURIUM, Strain/Indicator: TA98, Metabolic Activation: NONE, Method: STANDARD PLATE): inactive; negative
mutagenic call (Test System: AMES SALMONELLA TYPHIMURIUM, Strain/Indicator: TA98, Metabolic Activation: RAT, LIVER, S-9, PCB, Method: STANDARD PLATE): inactive; negative
mutagenic call (Test System: AMES SALMONELLA TYPHIMURIUM, Strain/Indicator: TA100, Metabolic Activation: NONE, Method: PREINCUBATION): inactive; negative
mutagenic call [1]: inactive; negative
mutagenic call (Test System: AMES SALMONELLA TYPHIMURIUM, Strain/Indicator: TA100, Metabolic Activation: RAT, LIVER, S-9, PCB, Method: STANDARD PLATE): inactive; negative
mutagenic call (Test System: E. COLI, Strain/Indicator: WP2 UVRA, Metabolic Activation: HAMSTER, LIVER, S-9, AROCLOR 1254, Method: STANDARD PLATE): inactive; negative
mutagenic call (Test System: E. COLI, Strain/Indicator: WP2 UVRA, Metabolic Activation: HAMSTER, LIVER, S-9, Method: STANDARD PLATE): inactive; negative
mutagenic call (Test System: E. COLI, Strain/Indicator: WP2 UVRA, Metabolic Activation: MOUSE, LIVER, S-9, AROCLOR 1254, Method: STANDARD PLATE): inactive; negative
mutagenic call (Test System: E. COLI, Strain/Indicator: WP2 UVRA, Metabolic Activation: MOUSE, LIVER, S-9, Method: STANDARD PLATE): inactive; negative
mutagenic call (Test System: E. COLI, Strain/Indicator: WP2 UVRA, Metabolic Activation: NONE, Method: STANDARD PLATE): inactive; negative
mutagenic call (Test System: E. COLI, Strain/Indicator: WP2 UVRA, Metabolic Activation: RAT, LIVER, S-9, AROCLOR 1254, Method: STANDARD PLATE): inactive; negative
mutagenic call (Test System: E. COLI, Strain/Indicator: WP2 UVRA, Metabolic Activation: RAT, LIVER, S-9, Method: STANDARD PLATE): inactive; negative

O=C1OC(=C(Cl)Cl)C(Cl)=C1Cl
mutagenic call [1]: active; positive

Fc1cnc2c(ccc3ncc(F)cc32)c1
mutagenic call (Test System: AMES SALMONELLA TYPHIMURIUM, Strain/Indicator: TA100, Metabolic Activation: RAT, LIVER, S-9, PHENOBARBITAL AND 5,6-BENZOFLAVONE, Method: PREINCUBATION): inactive; negative
